Results on 1 substance are retold here after patent US9211313B2, “Methods and compound to inhibit Ca2+ permeable cation conductance” (priority 2011, dated 2015).

Data set [1] concerns deoxygenation-activated cation conductance in human SS red cells. As to the kind of experiment: On-cell patch clamp of deoxygenation-activated cation conductance, symmetric Na methanesulfonate. To be noted: on-cell patch; for effect on deoxygenation-induced increase in cation conductance: 1 μM in the pipette / outside of membrane. The class given is cell-based. Here is the method:
Blood cell preparation: Human SS and AA blood was obtained under IRB-approved protocols of Children's Hospital and Beth Israel Deaconess Medical Center. After buffy coat removal and 5 washes in standard human red cell wash solution containing (in mM) 150 choline Cl, 1 MgCl, and 10 Tris-MOPS, pH 7.4, red cells were resuspended in storage solution containing (in mM) 145 KCl, 15 NaCl, and 10 HEPES, pH 7.4, then kept at 4° C. until used. Human red cells allowed to settle on coverslips were mounted on an inverted microscope in a 200 μl open chamber (WPI, Sarasota, Fla.) and superfused 15 min at room temperature by bath solution containing (in mM) 150 Na methanesulfonate, 10 Na EDTA, and 10 Na HEPES, pH 7.4.
Mouse red cells allowed to settle on coverslips were superfused 15 min with bath solution containing (in mM) either 150 mM Na methanesulfonate, 10 Na EDTA, and 10 Na HEPES, pH 7.4; or 140 NaCl, 4 KCl, 1CaCl2, 1 MgCl2, 10 Na HEPES, pH 7.4. Deoxygenation was achieved by switching superfusate to the same solution gassed ≧30 min prior to the experiment with 100% N2, and by flushing of the perfusion chamber with N2 during the deoxygenation period. The resulting bath pO2 was 18 mm Hg as measured by oxygen electrode (WPI). In the experiments of FIG. 1, deoxygenated cells were subsequently re-oxygenated by exposure to the same superfusate equilibrated with room air.
Washed human or mouse red cells in solution containing (in mM) 140 NaCl, 5 KCl, 1 CaCl2, 1 MgCl2, 10 Na HEPES, pH 7.4 were exposed for 1 hr on a rotary platform in a 37° C. incubator to 25 ppm carbon monoxide (CO) in 5% CO2. CO-exposed cells were then subjected to patch clamp or to calcium imaging experiments within 60 min after return to room air, using the solutions indicated.
On-cell patch clamp: Borosilicate pipettes (Corning 7052) pulled with a Narishige two stage puller or a Sutter P97 puller and fire-polished to resistances of 10-20 MΩ were front-filled and then backfilled. Symmetric bath and pipette solutions for studies of seal resistance stability during reversibility tests of the deoxygenation-activated conductance in SAD mouse red cells were (in mM) 140 NaCl, 4 KCl, 1 CaCl2, 1 MgCl2, 10 Na HEPES, pH 7.4. These conditions yielded tight seals in 13% of patch attempts on SAD cells. For study of deoxygenation-induced monovalent cation permeation in the absence of bath Ca^2+ and Mg^2+ recorded in SAD and Berkeley mouse cells and in human cells, symmetric bath and pipette solutions contained (in mM) 150 Na methanesulfonate, 10 Na EDTA, and 10 Na HEPES, pH 7.4. These conditions yielded tight seals in 16% of patch attempts on SAD mouse red cells, 26% of attempts on Berkeley mouse cells, and 30% of attempts on human SS cells. For study of Ca^2+ permeation in human SS cells, bath and pipette solutions contained (in mM) 100 CaCl2, 10 Na HEPES, pH 7.4. These conditions yielded tights seals on 44% of attempts. For all conditions tested in human red cells, 70% of tight seals were sustained through the solution change accompanying deoxygenation to allow recording of current activity.
On-cell patch currents were recorded with the Axopatch 1-D amplifier (Axon Instruments/Molecular Devices, Sunnyvale, Calif.). Holding potential was −Vp=−50 mV (expressed as the negative of the pipette potential (e.g., equivalent to the intracellular potential with respect to the pipette). To determine current-voltage relationships (I-V curves) in Fetchex or Clampex (PCLAMP, Axon Instruments), the realtime control window in gap-free mode was used to record current traces of 10-30 sec duration at holding potentials ranging from −100 to +100 mV, in 25 mV increments. The bath reference electrode was a silver chloride wire with a 3 M KCl agar bridge. Data was filtered at 500 Hz, digitized at 2 kHz by Clampex, and analyzed offline by Fetchan and Pstat or by Clampfit subroutines of PCLAMP. Holding potentials in on-cell patch experiments were expressed as −Vp, the negative of the pipette potential.
A general note: The patch-clamp technique gives a direct electrical read-out from membranes.

A further data set deals with red cell. The class given is cell-based. To be noted: data not shown.
The next data set has as its system mdx mice. As to the kind of experiment: Toxicity with daily subQ dosing for 30 days. Type of data set: in vivo, mouse. The method, then: This example describes toxicity studies with GsMTx-4. In one experiment, D-GsMTx4 was administered to 60 mdx mice and controls by daily subQ dosing at 5 mg/kg for 30 days at the Washington D.C. Wellstone center.
For data set [2], the system named is mechanosensitive channel (MSC). The settings on record: previously shown; cited from earlier work.

For “Grammastola spatulata mechanotoxin 4 (GCLEFWWKCNPNDDKCCRPKLKCSKLFKLCNFSF; listed as Grammastola spatulata) [GsMTx-4]”, the “effect on deoxygenation-induced increase in cation conductance” value is recorded as “prevented” in data set [1] and “completely inhibit” in data set [1] (listed as GsMTx4). Also, in data set [1] (1 μM in the pipette, n=6), the NPo after deoxygenation came out at 0.003±0.003. Besides, in the data set on red cell, the “effect on red cell shape” value is listed as “did not alter”. Further, the “toxicity in mice, general statement” value in the data set on mdx mice is “very low to absent toxicity”. Further, the toxicity result in the data set on mdx mice (5 mg/kg subQ daily, 30 days (month long)) is given as “no toxicity observed”. The “effect on mechanosensitive channel (MSC) activity” value in data set [2] is “block”.
